Where a SMILES comes first, the peptide text is derived from it.
Target: HLA A*3001 (Homo sapiens, UniProt P04439, D140H/D185E/E176W/F33S/G80R/H175R/K168Q/R138E/R41S)
Experiment: biochemical
Type: binding

Sequence of HLA A*3001 (P04439 25-365 limits assumed, stated change not applied): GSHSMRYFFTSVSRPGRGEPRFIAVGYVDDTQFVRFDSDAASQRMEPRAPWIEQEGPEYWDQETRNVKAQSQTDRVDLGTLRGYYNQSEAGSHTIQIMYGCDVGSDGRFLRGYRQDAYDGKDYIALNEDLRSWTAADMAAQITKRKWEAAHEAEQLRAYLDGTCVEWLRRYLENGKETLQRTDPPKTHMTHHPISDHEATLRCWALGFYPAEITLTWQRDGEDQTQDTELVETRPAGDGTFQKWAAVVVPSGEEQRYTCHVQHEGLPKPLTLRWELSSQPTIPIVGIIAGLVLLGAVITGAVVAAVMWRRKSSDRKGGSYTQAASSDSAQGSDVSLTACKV

SMILES | IC50 [nM]
CC(C)C[C@H](NC(=O)[C@H](Cc1ccc(O)cc1)NC(=O)[C@H](CO)NC(=O)[C@H](CO)NC(=O)[C@H](CO)NC(=O)[C@@H](NC(=O)[C@@H](N)CO)[C@@H](C)O)C(=O)N[C@@H](Cc1ccc(O)cc1)C(=O)N[C@@H](C)C(=O)O [3102.0171] (H-STSSSYLYA-OH) | 13
CSCC[C@H](NC(=O)[C@H](CCCCN)NC(=O)[C@H](CCCCN)NC(=O)[C@H](Cc1ccc(O)cc1)NC(=O)[C@H](CCCNC(=N)N)NC(=O)[C@H](C)NC(=O)[C@@H](N)CCCNC(=N)N)C(=O)N[C@@H](CC(C)C)C(=O)N[C@@H](CCCCN)C(=O)O [3102.0172] (H-RARYKKMLK-OH) | 1
CSCC[C@H](N)C(=O)N[C@@H](CC(C)C)C(=O)N[C@@H](CCCNC(=N)N)C(=O)N[C@@H](Cc1ccccc1)C(=O)N[C@@H](C)C(=O)N[C@@H](CC(N)=O)C(=O)N1CCC[C@H]1C(=O)N[C@@H](CC(C)C)C(=O)N[C@@H](CO)C(=O)O [3102.0173] (H-MLRFANPLS-OH) | 0.17
CSCC[C@H](NC(=O)[C@H](CCC(=O)O)NC(=O)[C@H](CO)NC(=O)[C@H](CC(C)C)NC(=O)[C@H](CCCNC(=N)N)NC(=O)[C@@H](NC(=O)[C@@H](N)CCCCN)[C@@H](C)O)C(=O)N[C@@H](CC(C)C)C(=O)N[C@@H](CO)C(=O)O [3102.0174] (H-KTRLSEMLS-OH) | 0.45
CC(C)[C@H](NC(=O)[C@H](CO)NC(=O)[C@H](CCCNC(=N)N)NC(=O)[C@H](Cc1ccccc1)NC(=O)[C@H](CCCNC(=N)N)NC(=O)[C@H](Cc1ccccc1)NC(=O)[C@@H](N)CCCNC(=N)N)C(=O)N[C@@H](Cc1ccc(O)cc1)C(=O)NCC(=O)O [3102.0175] (H-RFRFRSVYG-OH) | 0.36
C[C@H](NC(=O)[C@H](C)NC(=O)[C@H](CCCCN)NC(=O)CNC(=O)[C@@H](N)CCCCN)C(=O)N[C@@H](C)C(=O)N[C@@H](Cc1ccccc1)C(=O)N[C@@H](C)C(=O)N[C@@H](CCCCN)C(=O)O [3102.0176] (H-KGKAAAFAK-OH) | 3.1
CC(C)C[C@H](NC(=O)[C@H](C)NC(=O)[C@@H](N)CO)C(=O)N[C@@H](Cc1ccc(O)cc1)C(=O)N[C@@H](CO)C(=O)N[C@@H](Cc1ccc(O)cc1)C(=O)N[C@@H](C)C(=O)N[C@@H](CO)C(=O)N[C@@H](C)C(=O)O [3102.0177] (H-SALYSYASA-OH) | 37
CC(C)C[C@H](NC(=O)[C@H](CO)NC(=O)[C@H](CC(C)C)NC(=O)[C@H](CS)NC(=O)[C@H](CCCNC(=N)N)NC(=O)[C@H](CO)NC(=O)[C@@H](N)CS)C(=O)N[C@@H](Cc1ccccc1)C(=O)N[C@@H](Cc1ccc(O)cc1)C(=O)O [3102.0178] (H-CSRCLSLFY-OH) | 22
CC(C)C[C@H](NC(=O)[C@H](C)NC(=O)[C@H](Cc1ccc(O)cc1)NC(=O)[C@H](CCCNC(=N)N)NC(=O)[C@@H](NC(=O)[C@@H](N)CC(C)C)[C@@H](C)O)C(=O)N[C@@H](Cc1c[nH]cn1)C(=O)NCC(=O)N[C@@H](CCCCN)C(=O)O [3102.0179] (H-LTRYALHGK-OH) | 0.25
CC[C@H](C)[C@H](NC(=O)[C@@H](NC(=O)[C@H](CO)NC(=O)[C@H](CCCNC(=N)N)NC(=O)[C@H](CC(C)C)NC(=O)[C@H](CO)NC(=O)[C@@H](N)CCSC)[C@@H](C)O)C(=O)N[C@H](C(=O)N[C@@H](CCCCN)C(=O)O)[C@@H](C)CC [3102.0180] (H-MSLRSTIIK-OH) | 37
CC(C)C[C@H](NC(=O)[C@H](CC(C)C)NC(=O)[C@H](Cc1ccc(O)cc1)NC(=O)[C@@H](NC(=O)[C@H](C)NC(=O)[C@H](CCCCN)NC(=O)[C@@H](NC(=O)[C@@H](N)C(C)C)C(C)C)[C@@H](C)O)C(=O)N[C@@H](CCCCN)C(=O)O [3102.0181] (H-VVKATYLLK-OH) | 0.32
CC(C)C[C@H](NC(=O)[C@H](CCC(N)=O)NC(=O)[C@H](Cc1c[nH]cn1)NC(=O)[C@H](CCCCN)NC(=O)[C@H](CO)NC(=O)[C@H](CO)NC(=O)[C@@H](NC(=O)[C@@H](N)CCCCN)C(C)C)C(=O)N[C@H](C(=O)O)C(C)C [3102.0182] (H-KVSSKHQLV-OH) | 14
CC(C)C[C@H](N)C(=O)N[C@H](C(=O)N[C@@H](CCCCN)C(=O)N[C@@H](CO)C(=O)N[C@@H](CO)C(=O)N[C@@H](Cc1ccccc1)C(=O)N[C@H](C(=O)N[C@@H](CCCCN)C(=O)N[C@@H](CCCCN)C(=O)O)C(C)C)C(C)C [3102.0185] (H-LVKSSFVKK-OH) | 5.6
CC[C@H](C)[C@H](NC(=O)[C@@H]1CCCN1C(=O)[C@H](C)NC(=O)[C@H](CO)NC(=O)[C@H](C)NC(=O)[C@@H]1CCCN1C(=O)[C@H](CCCCN)NC(=O)[C@@H](NC(=O)[C@@H](N)CCCNC(=N)N)[C@@H](C)O)C(=O)O [3102.0187] (H-RTKPASAPI-OH) | 0.11
CC[C@H](C)[C@H](NC(=O)[C@H](Cc1ccccc1)NC(=O)[C@H](CC(C)C)NC(=O)[C@H](CC(=O)O)NC(=O)[C@H](CCCNC(=N)N)NC(=O)[C@@H](NC(=O)[C@@H](N)CCCNC(=N)N)[C@@H](C)O)C(=O)N[C@@H](C)C(=O)N[C@@H](CC(C)C)C(=O)O [3102.0188] (H-RTRDLFIAL-OH) | 0.11
CC[C@H](C)[C@H](NC(=O)[C@@H](NC(=O)[C@@H](N)CCCCN)[C@@H](C)O)C(=O)N[C@@H](Cc1c[nH]c2ccccc12)C(=O)N[C@@H](CCC(=O)O)C(=O)N[C@H](C(=O)N1CCC[C@H]1C(=O)N[C@@H](CCC(N)=O)C(=O)N[C@@H](CCCCN)C(=O)O)[C@@H](C)CC [3102.0190] (H-KTIWEIPQK-OH) | 12
CC[C@H](C)[C@H](NC(=O)[C@@H](NC(=O)[C@@H](N)CCCCN)C(C)C)C(=O)N[C@H](C(=O)N[C@@H](CCCNC(=N)N)C(=O)N[C@@H](CC(N)=O)C(=O)N[C@@H](CC(C)C)C(=O)N[C@@H](CC(N)=O)C(=O)N[C@@H](CCCCN)C(=O)O)C(C)C [3102.0191] (H-KVIVRNLNK-OH) | 1.4
CC(C)C[C@H](NC(=O)[C@H](Cc1c[nH]c2ccccc12)NC(=O)[C@H](CCCCN)NC(=O)[C@@H](NC(=O)[C@@H](N)CCCCN)C(C)C)C(=O)N[C@@H](CCC(N)=O)C(=O)N[C@@H](CC(N)=O)C(=O)N[C@@H](CO)C(=O)N[C@H](C(=O)O)C(C)C [3102.0194] (H-KVKWLQNSV-OH) | 0.5
CSCC[C@H](NC(=O)[C@@H]1CCCN1C(=O)[C@H](CC(C)C)NC(=O)[C@H](CO)NC(=O)[C@H](CCC(=O)O)NC(=O)[C@H](CCCCN)NC(=O)[C@H](CC(N)=O)NC(=O)[C@@H](N)CCCCN)C(=O)N[C@@H](CC(C)C)C(=O)O [3102.0195] (H-KNKESLPML-OH) | 18
CC[C@H](C)[C@H](NC(=O)[C@H](CO)NC(=O)[C@@H](NC(=O)[C@H](CCCCN)NC(=O)[C@H](CCCCN)NC(=O)[C@H](CCC(N)=O)NC(=O)[C@@H](N)CCCNC(=N)N)[C@@H](C)CC)C(=O)N[C@@H](CC(C)C)C(=O)N[C@H](C(=O)O)C(C)C [3102.0196] (H-RQKKISILV-OH) | 0.36
CC(C)[C@H](NC(=O)[C@@H](N)CCCNC(=N)N)C(=O)N[C@@H](Cc1c[nH]cn1)C(=O)N[C@@H](CC(=O)O)C(=O)N[C@H](C(=O)N[C@@H](CC(N)=O)C(=O)N[C@@H](C)C(=O)N[C@H](C(=O)N[C@@H](CCCCN)C(=O)O)[C@@H](C)O)[C@@H](C)O [3102.0197] (H-RVHDTNATK-OH) | 7.7
CC(C)C[C@H](NC(=O)[C@H](Cc1ccccc1)NC(=O)[C@@H](NC(=O)[C@H](Cc1ccc(O)cc1)NC(=O)[C@H](CCCNC(=N)N)NC(=O)[C@@H](NC(=O)[C@@H](N)CC(N)=O)C(C)C)C(C)C)C(=O)N[C@@H](Cc1ccc(O)cc1)C(=O)N[C@@H](CCCCN)C(=O)O [3102.0198] (H-NVRYVFLYK-OH) | 9.9
CC[C@H](C)[C@H](N)C(=O)N[C@@H](CO)C(=O)N[C@@H](CCCNC(=N)N)C(=O)N[C@@H](CC(N)=O)C(=O)N[C@@H](CCCCN)C(=O)N[C@@H](CC(N)=O)C(=O)N[C@H](C(=O)N[C@@H](Cc1ccccc1)C(=O)N[C@H](C(=O)O)C(C)C)[C@@H](C)CC [3102.0199] (H-ISRNKNIFV-OH) | 7.3
CC[C@H](C)[C@H](NC(=O)[C@H](CCCCN)NC(=O)[C@@H](NC(=O)CN)[C@@H](C)O)C(=O)N[C@@H](C)C(=O)N[C@@H](CC(C)C)C(=O)N[C@@H](CC(C)C)C(=O)N[C@@H](CCC(=O)O)C(=O)N[C@@H](CC(C)C)C(=O)O [3102.0200] (H-GTKIALLEL-OH) | 1.3
CC[C@H](C)[C@H](NC(=O)[C@H](CCCCN)NC(=O)[C@@H](NC(=O)[C@@H](N)CCCNC(=N)N)[C@@H](C)O)C(=O)N[C@H](C(=O)N[C@@H](CO)C(=O)N[C@@H](CC(C)C)C(=O)N1CCC[C@H]1C(=O)N[C@@H](CC(C)C)C(=O)O)[C@@H](C)O [3102.0201] (H-RTKITSLPL-OH) | 0.087
CC[C@H](C)[C@H](NC(=O)[C@H](C)NC(=O)[C@@H](NC(=O)[C@@H](NC(=O)[C@H](C)NC(=O)[C@H](Cc1ccccc1)NC(=O)[C@@H](NC(=O)[C@@H](N)CCCCN)[C@@H](C)O)[C@@H](C)CC)[C@@H](C)CC)C(=O)N[C@H](C(=O)O)C(C)C [3102.0202] (H-KTFAIIAIV-OH) | 24
CSCC[C@H](N)C(=O)N[C@@H](CO)C(=O)N[C@@H](CCCNC(=N)N)C(=O)N[C@@H](CCCNC(=N)N)C(=O)N[C@@H](Cc1ccc(O)cc1)C(=O)N[C@@H](CO)C(=O)N[C@@H](CCCNC(=N)N)C(=O)N[C@@H](CCC(=O)O)C(=O)N[C@@H](CCCCN)C(=O)O [3102.0203] (H-MSRRYSREK-OH) | 1.3
CC[C@H](C)[C@H](NC(=O)[C@H](C)NC(=O)[C@@H](N)CCCCN)C(=O)N[C@@H](CO)C(=O)N[C@@H](CC(N)=O)C(=O)N[C@@H](C)C(=O)N[C@@H](CCCNC(=N)N)C(=O)N[C@@H](CC(C)C)C(=O)N[C@@H](CCCCN)C(=O)O [3102.0204] (H-KAISNARLK-OH) | 26
CC[C@H](C)[C@H](NC(=O)[C@H](CCCNC(=N)N)NC(=O)[C@@H](NC(=O)[C@H](CC(=O)O)NC(=O)[C@H](CCCCN)NC(=O)[C@@H](NC(=O)[C@@H](N)CCCNC(=N)N)[C@@H](C)O)[C@@H](C)O)C(=O)N[C@@H](CCCCN)C(=O)N[C@@H](C)C(=O)O [3102.0205] (H-RTKDTRIKA-OH) | 0.2
CC[C@H](C)[C@H](NC(=O)[C@@H](N)CCCCN)C(=O)N[C@@H](CCCNC(=N)N)C(=O)N1CCC[C@H]1C(=O)N[C@H](C(=O)N[C@@H](CCCNC(=N)N)C(=O)N[C@@H](CO)C(=O)N[C@H](C(=O)N[C@@H](Cc1ccc(O)cc1)C(=O)O)C(C)C)[C@@H](C)O [3102.0206] (H-KIRPTRSVY-OH) | 7.2

From publication PMC2248166, “Quantitative peptide binding motifs for 19 human and mouse MHC class I molecules derived using positional scanning combinatorial peptide libraries” (Immunome Research, 2008)
